Data: patent US8758816B2, “Compositions comprising azelastine and methods of use thereof” (priority 2004, dated 2014)
Structures can show the parent of a compound that is named as a salt.

Test system: patients with seasonal allergic rhinitis (SAR)
Test: MP 428 study: individual symptom severity scores (runny nose, itchy nose, sneezing, congestion; 0-3 scale)
Format: in vivo, human
Settings: Intent-to-Treat Population
Procedure: A two-week, randomized, double-blind study, which evaluated the effects of the co-administration of ASTELIN® (azelastine hydrochloride (HCl)) and FLONASE® (fluticasone propionate) compared to either product alone in patients with seasonal allergic rhinitis (SAR) was conducted during the 2006 Texas mountain cedar season. After a 5-day placebo lead-in period, 151 patients with moderate-to-severe allergic rhinitis symptoms were randomized to either: (1) (49 total patients) ASTELIN® (azelastine hydrochloride (HCl)) plus placebo saline nasal spray 2 sprays per nostril, 15 minutes apart, twice daily (AM & PM); (2) (50 total patients) FLONASE® (fluticasone propionate) plus placebo saline nasal spray, 2 sprays per nostril, 15 minutes apart, once daily (AM) and two sessions of placebo saline nasal spray, 2 sprays per nostril, 15 minutes apart (PM); or (3) (52 total patients) the co-administration of ASTELIN® (azelastine hydrochloride (HCl)) 2 sprays per nostril plus FLONASE® (fluticasone propionate) 2 sprays per nostril (AM), 15 minutes apart, and ASTELIN® (azelastine hydrochloride (HCl)) 2 sprays per nostril plus placebo saline nasal spray, 15 minutes apart, (PM) for a 2-week double-blind treatment period.
The primary efficacy variable was the change from baseline in the Total Nasal Symptom Score (TNSS), which comprised sneezing, itchy nose, runny nose, and nasal congestion (individual symptoms scores were assigned a value between 0 and 3, where 0=no symptoms and 3=severe symptoms). This study was not statistically designed to assess the differences between ASTELIN® and FLONASE®.
The results of the clinical trial are summarized and presented in Appendix A hereinbelow and in FIGS. 1-6. […] FIGS. 2-5 show the mean improvement in severity score (0-3 scale) from baseline for the symptoms of runny nose, itchy nose, sneezing and congestion, respectively.

For `CN1CCCC(n2nc(Cc3ccc(Cl)cc3)c3ccccc3c2=O)CC1` (racemic) [Azelastine, (±)-1-(2H)-phthalazinone, 4-[(4-chlorophenyl)methyl]-2-(hexahydro-1-methyl-1H-azepin-4-yl)-, mono-hydrochloride], the “Percent Change from Baseline in AM and PM Combined Nasal Symptom Score: Congestion, LS Mean” value (“Percent Change … Congestion, LS Mean” for short) (Day 5) was −18.24%, the “Percent Change from Baseline in AM and PM Combined Nasal Symptom Score: Congestion, Mean” value (shortened to “Percent Change from Baseline … Congestion, Mean”) (Day 5) was −18.92% and the “Percent Change from Baseline in AM and PM Combined Nasal Symptom Score: Congestion, Median” value (“Percent Change … Congestion, Median” for short) (Day 5) was −16.67%. For the same compound, the “Percent Change from Baseline in AM and PM Combined Nasal Symptom Score: Itchy Nose, LS Mean” value (from here on “Percent Change … Itchy Nose, LS Mean”) (Day 5) was −24.75%, the “Percent Change from Baseline in AM and PM Combined Nasal Symptom Score: Itchy Nose, Mean” value (shortened to “Percent Change from Baseline … Itchy Nose, Mean”) (Day 5) was −24.24% and the “Percent Change from Baseline in AM and PM Combined Nasal Symptom Score: Itchy Nose, Median” value (“Percent Change … Itchy Nose, Median” for short) (Day 5) was −15.49%. For the same compound, the “Percent Change from Baseline in AM and PM Combined Nasal Symptom Score: Runny Nose, LS Mean” value (from here on “Percent Change … Runny Nose, LS Mean”) (Day 5) was −18.46%, the “Percent Change from Baseline in AM and PM Combined Nasal Symptom Score: Runny Nose, Mean” value (shortened to “Percent Change from Baseline … Runny Nose, Mean”) (Day 5) was −18.42% and the “Percent Change from Baseline in AM and PM Combined Nasal Symptom Score: Runny Nose, Median” value (“Percent Change … Runny Nose, Median” for short) (Day 5) was −11.76%. The “Percent Change from Baseline in AM and PM Combined Nasal Symptom Score: Sneezing, LS Mean” value (from here on “Percent Change from Baseline … Sneezing, LS Mean”) (Day 5) was −33.21%, the “Percent Change from Baseline in AM and PM Combined Nasal Symptom Score: Sneezing, Mean” value (“Percent Change from Baseline … Sneezing, Mean” for short) (Day 5) was −32.23% and the “Percent Change from Baseline in AM and PM Combined Nasal Symptom Score: Sneezing, Median” value (from here on “Percent Change from Baseline … Sneezing, Median”) (Day 5) was −25.23%. The “Change from Baseline in AM and PM Combined Nasal Symptom Score: Congestion, LS Mean” value (Day 6) was −1.04, the “Change from Baseline in AM and PM Combined Nasal Symptom Score: Congestion, Mean” value (Day 6) was −1.09 and the “Change from Baseline in AM and PM Combined Nasal Symptom Score: Congestion, Median” value (Day 6) was −0.92. The “Change from Baseline in AM and PM Combined Nasal Symptom Score: Itchy Nose, LS Mean” value (Day 6) was −1.14, the “Change from Baseline in AM and PM Combined Nasal Symptom Score: Itchy Nose, Mean” value (Day 6) was −1.14 and the “Change from Baseline in AM and PM Combined Nasal Symptom Score: Itchy Nose, Median” value (Day 6) was −0.73. For the same compound, the “Change from Baseline in AM and PM Combined Nasal Symptom Score: Runny Nose, LS Mean” value (Day 6) was −0.94, the “Change from Baseline in AM and PM Combined Nasal Symptom Score: Runny Nose, Mean” value (Day 6) was −0.95 and the “Change from Baseline in AM and PM Combined Nasal Symptom Score: Runny Nose, Median” value (Day 6) was −1.00. The “Change from Baseline in AM and PM Combined Nasal Symptom Score: Sneezing, LS Mean” value (Day 6) was −1.27, the “Change from Baseline in AM and PM Combined Nasal Symptom Score: Sneezing, Mean” value (Day 6) was −1.26 and the “Change from Baseline in AM and PM Combined Nasal Symptom Score: Sneezing, Median” value (Day 6) was −1.30. For the same compound, the “Percent Change … Congestion, LS Mean” value (Day 6) was −18.26%, the “Percent Change from Baseline … Congestion, Mean” value (Day 6) was −18.97% and the “Percent Change … Congestion, Median” value (Day 6) was −18.37%. For the same compound, the “Percent Change … Itchy Nose, LS Mean” value (Day 6) was −24.98%, the “Percent Change from Baseline … Itchy Nose, Mean” value (Day 6) was −25.00% and the “Percent Change … Itchy Nose, Median” value (Day 6) was −15.49%. The “Percent Change … Runny Nose, LS Mean” value (Day 6) was −18.89%, the “Percent Change from Baseline … Runny Nose, Mean” value (Day 6) was −18.89% and the “Percent Change … Runny Nose, Median” value (Day 6) was −21.74%. For the same compound, the “Percent Change from Baseline … Sneezing, LS Mean” value (Day 6) was −32.36%, the “Percent Change from Baseline … Sneezing, Mean” value (Day 6) was −31.52% and the “Percent Change from Baseline … Sneezing, Median” value (Day 6) was −28.00%. For the same compound, the “Change from Baseline in AM and PM Combined Nasal Symptom Score: Congestion, LS Mean” value (Day 7) was −1.17, the “Change from Baseline in AM and PM Combined Nasal Symptom Score: Congestion, Mean” value (Day 7) was −1.23 and the “Change from Baseline in AM and PM Combined Nasal Symptom Score: Congestion, Median” value (Day 7) was −1.00. The “Change from Baseline in AM and PM Combined Nasal Symptom Score: Itchy Nose, LS Mean” value (Day 7) was −1.18, the “Change from Baseline in AM and PM Combined Nasal Symptom Score: Itchy Nose, Mean” value (Day 7) was −1.17 and the “Change from Baseline in AM and PM Combined Nasal Symptom Score: Itchy Nose, Median” value (Day 7) was −0.90. The “Change from Baseline in AM and PM Combined Nasal Symptom Score: Runny Nose, LS Mean” value (Day 7) was −0.93, the “Change from Baseline in AM and PM Combined Nasal Symptom Score: Runny Nose, Mean” value (Day 7) was −0.95 and the “Change from Baseline in AM and PM Combined Nasal Symptom Score: Runny Nose, Median” value (Day 7) was −1.07. For the same compound, the “Change from Baseline in AM and PM Combined Nasal Symptom Score: Sneezing, LS Mean” value (Day 7) was −1.76, the “Change from Baseline in AM and PM Combined Nasal Symptom Score: Sneezing, Mean” value (Day 7) was −1.75 and the “Change from Baseline in AM and PM Combined Nasal Symptom Score: Sneezing, Median” value (Day 7) was −1.55. The “Percent Change … Congestion, LS Mean” value (Day 7) was −21.14%, the “Percent Change from Baseline … Congestion, Mean” value (Day 7) was −22.02% and the “Percent Change … Congestion, Median” value (Day 7) was −18.37%. The “Percent Change … Itchy Nose, LS Mean” value (Day 7) was −26.35%, the “Percent Change from Baseline … Itchy Nose, Mean” value (Day 7) was −25.83% and the “Percent Change … Itchy Nose, Median” value (Day 7) was −21.57%. For the same compound, the “Percent Change … Runny Nose, LS Mean” value (Day 7) was −18.66%, the “Percent Change from Baseline … Runny Nose, Mean” value (Day 7) was −18.92% and the “Percent Change … Runny Nose, Median” value (Day 7) was −25.00%. For the same compound, the “Percent Change from Baseline … Sneezing, LS Mean” value (Day 7) was −40.66%, the “Percent Change from Baseline … Sneezing, Mean” value (Day 7) was −39.73% and the “Percent Change from Baseline … Sneezing, Median” value (Day 7) was −38.78%. For the same compound, the “Change from Baseline in AM and PM Combined Nasal Symptom Score: Congestion, LS Mean” value (Day 8) was −1.24, the “Change from Baseline in AM and PM Combined Nasal Symptom Score: Congestion, Mean” value (Day 8) was −1.27 and the “Change from Baseline in AM and PM Combined Nasal Symptom Score: Congestion, Median” value (Day 8) was −1.00. The “Change from Baseline in AM and PM Combined Nasal Symptom Score: Itchy Nose, LS Mean” value (Day 8) was −1.15, the “Change from Baseline in AM and PM Combined Nasal Symptom Score: Itchy Nose, Mean” value (Day 8) was −1.12 and the “Change from Baseline in AM and PM Combined Nasal Symptom Score: Itchy Nose, Median” value (Day 8) was −0.83. For the same compound, the “Change from Baseline in AM and PM Combined Nasal Symptom Score: Runny Nose, LS Mean” value (Day 8) was −1.23, the “Change from Baseline in AM and PM Combined Nasal Symptom Score: Runny Nose, Mean” value (Day 8) was −1.25 and the “Change from Baseline in AM and PM Combined Nasal Symptom Score: Runny Nose, Median” value (Day 8) was −1.00. The “Change from Baseline in AM and PM Combined Nasal Symptom Score: Sneezing, LS Mean” value (Day 8) was −1.74, the “Change from Baseline in AM and PM Combined Nasal Symptom Score: Sneezing, Mean” value (Day 8) was −1.73 and the “Change from Baseline in AM and PM Combined Nasal Symptom Score: Sneezing, Median” value (Day 8) was −1.55. For the same compound, the “Percent Change … Congestion, LS Mean” value (Day 8) was −22.22%, the “Percent Change from Baseline … Congestion, Mean” value (Day 8) was −22.68% and the “Percent Change … Congestion, Median” value (Day 8) was −18.64%. The “Percent Change … Itchy Nose, LS Mean” value (Day 8) was −25.37%, the “Percent Change from Baseline … Itchy Nose, Mean” value (Day 8) was −24.80% and the “Percent Change … Itchy Nose, Median” value (Day 8) was −18.92%. For the same compound, the “Percent Change … Runny Nose, LS Mean” value (Day 8) was −24.85%, the “Percent Change from Baseline … Runny Nose, Mean” value (Day 8) was −24.97% and the “Percent Change … Runny Nose, Median” value (Day 8) was −25.00%. The “Percent Change from Baseline … Sneezing, LS Mean” value (Day 8) was −38.54%, the “Percent Change from Baseline … Sneezing, Mean” value (Day 8) was −37.78% and the “Percent Change from Baseline … Sneezing, Median” value (Day 8) was −33.33%.
